Reference: patent US20200199647A1, “ASSAY FOR SCREENING MODULATORS OF HOLOPHOSPHATASE ACTIVITY” (UNITED KINGDOM RESEARCH AND INNOVATION, priority 2017, published 2020)

Experiments:
R15A^N/R15B^C = target: T1, R15A^N/R15B^C (Homo sapiens, UniProt O75807+Q5SWA1); assay: Dephosphorylation of P-eIF2α by chimeric holophosphatase PP1c-R15A^N/R15B^C; format: biochemical; details: PP1c 10 nM, compounds 100 μM, 30° C., 16 h
T1 construct: PPP1R15A amino acids 325-636 (R15A), 325-512 (R15A^N), and 513-636 (R15A^C); PPP1R15B amino acids 340-698 (R15B), 340-635 (R15B^N), and 636-698 (R15B^C); R15B^C (PPP1R15B amino acids 636-698); His6 (C); made in house; host or cells: E. coli BL21 pLysS (chimera, eIF2α); E. coli BL21/pGro7 (PP1c)
Excerpt: (§1) The cDNA encoding human PPP1R15A, PPP1R15B and PPP1R3A regulatory subunits were cloned into a pMAL-c5×-His vector, encoding for an amino-terminal MBP-tag and a carboxy-terminal His6-tag. […] R15A^N/R15B^C Chimeras were obtained by swapping the amino-terminal regions (R15^N) of R15A and R15B proteins described above, whilst maintaining the same carboxy-terminal regions (R15^C), to produce R15B^N/R15A^C and […] chimeras respectively, using In-Fusion cloning (Takara). All regulatory subunits were expressed in BL21 pLysS cells in Luria broth (LB) at 30° C. overnight. […] R15 proteins were stored at −80° C. and used within one month.
(§2) PP1c was diluted to the appropriate concentration (as indicated in the figure legends) in dephosphorylation buffer immediately prior to use. Dephosphorylation reactions were carried out by pre-incubating diluted PP1c in the presence or absence of regulatory subunits (either […]), and/or compounds (all at 100 μM, except for Salubrinal which was used at 30 μM), for 15′ at RT. All compounds were diluted in DMSO, and DMSO vehicle was used in all control experiments.
(§3) The reaction was initiated by the addition of 1 μM P-eIF2α or ^33P Phosphorylase a substrates and then incubated at 30° C. for 16 h with shaking at 350 rpm. Reactions were stopped by addition of 4× Laemmli sample buffer. eIF2α samples were analyzed by immunoblotting or Phos-tag gels. […]

R15B^N/R15A^C = target: T2, R15B^N/R15A^C (Homo sapiens, UniProt O75807+Q5SWA1); assay: Dephosphorylation of P-eIF2α by chimeric holophosphatase PP1c-R15B^N/R15A^C; format: biochemical; details: PP1c 10 nM, compounds 100 μM, 30° C., 16 h
T2 construct: PPP1R15B amino acids 340-698 (R15B), 340-635 (R15B^N), and 636-698 (R15B^C); PPP1R15A amino acids 325-636 (R15A), 325-512 (R15A^N), and 513-636 (R15A^C); R15A^C (PPP1R15A amino acids 513-636); His6 (C); made in house; host or cells: E. coli BL21 pLysS (chimera, eIF2α); E. coli BL21/pGro7 (PP1c)
Excerpt: as §1, §2, §3

R15A-PP1c = target: T3, R15A-PP1c (Homo sapiens, UniProt O75807); assay: In vitro dephosphorylation of P-eIF2α by recombinant R15A-PP1c holophosphatase (10 nM PP1c); format: biochemical; details: PP1c 10 nM, 1 μM P-eIF2α, compounds 100 μM, 30° C., 16 h
T3 construct: PPP1R15A amino acids 325-636 (R15A); His6 (C); made in house; host or cells: E. coli BL21 pLysS (R15A, eIF2α); E. coli BL21/pGro7 (PP1c)
Method: as §2
(§4) The reaction was initiated by the addition of 1 μM P-eIF2α or ^33P Phosphorylase a substrates and then incubated at 30° C. for 16 h with shaking at 350 rpm. Reactions were stopped by addition of 4× Laemmli sample buffer. eIF2α samples were analyzed by immunoblotting or Phos-tag gels. […] Samples in FIG. 8 and FIG. 16 were run on a 15% SuperSep Phos-tag acrylamide gel (Alpha Laboratories) and visualized by staining with InstantBlue Protein Stain.

R15B = target: T4, R15B (Homo sapiens, UniProt Q5SWA1); assay: Limited trypsin proteolysis of R15B (conformational change); details: 22° C.
T4 construct: PPP1R15B amino acids 340-698 (R15B); His6 (C); made in house; host or cells: E. coli BL21 pLysS
T4 sequence (Q5SWA1 340-698): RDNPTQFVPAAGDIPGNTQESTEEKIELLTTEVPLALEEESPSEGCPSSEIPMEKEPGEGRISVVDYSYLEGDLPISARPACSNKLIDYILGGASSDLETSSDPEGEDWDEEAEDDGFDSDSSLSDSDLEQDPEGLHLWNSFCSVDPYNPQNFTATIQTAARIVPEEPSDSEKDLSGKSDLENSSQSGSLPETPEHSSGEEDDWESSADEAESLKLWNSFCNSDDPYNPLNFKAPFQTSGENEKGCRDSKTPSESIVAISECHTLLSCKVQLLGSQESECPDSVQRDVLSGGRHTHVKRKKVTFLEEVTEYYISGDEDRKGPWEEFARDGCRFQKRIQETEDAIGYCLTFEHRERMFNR
Method: Reactions were allowed to proceed at 22° C. with shaking at 350 rpm. At time points 30 min, 1 h, 2 h or 3 h, 30 μl of sample was removed from the mix and digestion was stopped by addition of 10 μl of 16% SDS Laemmli sample buffer. Samples were run on 4-12% NuPAGE Bis-Tris gels (Life Technologies). Proteins were visualised by staining with InstantBlue Coomassie Protein Stain (Expedeon) protein stain.
Purified R15A and R15B were diluted to 3 μM in PBS, and incubated for 15′ at RT with 100 μM Raphin1, or DMSO vehicle. Reactions were initiated by addition of 5 nM of trypsin from bovine pancreas (Sigma), made up in PBS, and allowed to proceed for 5′ at 22° C., with shaking at 350 rpm. Digestion was stopped by addition of 4× Laemmli sample buffer and samples were run on 4-12% NuPAGE Bis-Tris gels (Life Technologies). Proteins were visualised by staining with InstantBlue Protein Stain.

PP1c = target: T5, PP1c (Homo sapiens, UniProt P62136); assay: Dephosphorylation of P-eIF2α by increasing amounts of PP1c alone; format: biochemical; details: compound 100 μM, 30° C., 16 h
T5 construct: The cDNA encoding amino acids 7-330 of human PP1cα; made in house; host or cells: E. coli BL21/pGro7 (PP1c); E. coli BL21 pLysS (eIF2α)
Method: as §2, §4

T3 sequence (O75807 325-636, stated change not applied): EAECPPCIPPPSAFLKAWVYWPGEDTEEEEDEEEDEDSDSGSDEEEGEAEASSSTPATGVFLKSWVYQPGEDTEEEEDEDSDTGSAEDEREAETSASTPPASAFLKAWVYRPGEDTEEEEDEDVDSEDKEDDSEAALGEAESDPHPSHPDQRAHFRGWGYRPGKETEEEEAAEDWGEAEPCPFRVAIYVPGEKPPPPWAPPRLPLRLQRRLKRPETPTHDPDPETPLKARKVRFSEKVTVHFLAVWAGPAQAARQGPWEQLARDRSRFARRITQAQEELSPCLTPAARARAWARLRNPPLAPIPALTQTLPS
T3 sequence (P62136 7-330 partner): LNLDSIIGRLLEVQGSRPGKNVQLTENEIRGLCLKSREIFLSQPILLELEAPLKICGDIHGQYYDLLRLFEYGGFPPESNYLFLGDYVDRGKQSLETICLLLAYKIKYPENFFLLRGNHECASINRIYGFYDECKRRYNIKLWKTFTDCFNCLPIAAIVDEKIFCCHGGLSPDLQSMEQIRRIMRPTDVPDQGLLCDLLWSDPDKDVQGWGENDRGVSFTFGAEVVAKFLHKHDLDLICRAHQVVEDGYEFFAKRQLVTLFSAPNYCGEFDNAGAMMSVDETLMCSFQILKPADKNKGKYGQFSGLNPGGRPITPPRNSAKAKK
T5 sequence (P62136 7-330): as the sequence (P62136 7-330 partner) above
T1 sequence (O75807+Q5SWA1 fused, stated change not applied): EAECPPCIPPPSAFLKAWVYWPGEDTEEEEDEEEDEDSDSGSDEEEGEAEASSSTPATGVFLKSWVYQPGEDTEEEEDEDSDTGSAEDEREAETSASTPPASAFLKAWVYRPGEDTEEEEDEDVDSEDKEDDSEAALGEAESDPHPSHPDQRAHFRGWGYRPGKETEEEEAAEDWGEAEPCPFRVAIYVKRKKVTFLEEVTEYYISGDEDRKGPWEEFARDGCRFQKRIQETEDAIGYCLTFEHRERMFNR
T1 sequence (P62136 7-330 partner): as the sequence (P62136 7-330 partner) above
T2 sequence (Q5SWA1+O75807 fused, stated change not applied): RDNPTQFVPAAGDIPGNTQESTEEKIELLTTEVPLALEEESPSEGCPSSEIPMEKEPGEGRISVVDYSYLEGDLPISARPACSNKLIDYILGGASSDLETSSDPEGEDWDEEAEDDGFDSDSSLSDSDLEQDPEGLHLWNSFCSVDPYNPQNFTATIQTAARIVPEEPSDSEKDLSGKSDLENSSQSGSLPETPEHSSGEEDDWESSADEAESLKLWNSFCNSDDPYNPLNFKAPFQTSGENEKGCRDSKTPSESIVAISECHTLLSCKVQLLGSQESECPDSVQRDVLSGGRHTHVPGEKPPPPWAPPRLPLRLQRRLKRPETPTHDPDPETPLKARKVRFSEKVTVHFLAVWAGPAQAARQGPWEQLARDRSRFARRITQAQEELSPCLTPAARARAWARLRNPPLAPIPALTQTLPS
T2 sequence (P62136 7-330 partner): as the sequence (P62136 7-330 partner) above

Structure (SMILES)	inhibition of R15A^N/R15B^C chimeric holophosphatase (R15A^N/R15B^C)	inhibition of R15B^N/R15A^C chimeric holophosphatase (R15B^N/R15A^C)	inhibition of R15A-PP1c eIF2α holophosphatase (R15A-PP1c)	sensitivity of R15B to trypsin proteolysis (R15B; 100 μM compound, 0.5 μM R15B, 2.5 nM trypsin, 30 min to 3 h)	inhibition of PP1c alone (PP1c)	trypsin sensitivity of R15B (R15B; 100 μM Raphin1, 3 μM R15B, 5 nM trypsin, 5 min)
N=C(N)N/N=C/c1c(Cl)cccc1Cl [Guanabenz]	inhibited	largely insensitive	selectively inhibited R15A-PP1c	No such protective effects	did not inhibit PP1c	
NC(N)=N/N=C/c1cccc(Cl)c1Cl [Raphin1]	not R15A^N/R15B^C	selectively inhibited R15B^N/R15A^C	not R15A-PP1c		did not inhibit PP1c	protected R15B
